Legend:
HFD mice [1] = assay: Periovarian and abdominal wall fat pad thickness, adipocyte size and accumulated fat weight in HFD-supplied mice; format: in vivo, ICR mice; settings: test materials 200 mg/kg oral, Metformin 250 mg/kg, mean±SD for 8 mice
HFD mice [2] = assay: Body weight and total body/abdominal fat density (DEXA) in HFD-supplied mice; format: in vivo, ICR mice; settings: test materials 200 mg/kg, metformin 250 mg/kg
Experimental: Specifically, after acclimating total 200 6-week-old female ICR mice to a laboratory environment for 7 days, they were adapted to HFD (45% Kcal high fat diet) 1 week before the start of administration of the experimental substance, and then the experimental substance was administered, and in the normal control group, a general NFD (Normal pellet diet) was supplied by the same method.
As the experimental substance, the LB (lemon balm extract) and CS (corn silk extract) alone and 9 kinds of LB:CS complexes (LB:CS=1:1, 1:2, 1:4, 1:6, 1:8, 2:1, 4:1, 6:1 and 8:1 (g/g)) as described in Table 1 above were used. The administration dose of the experimental substance was equally set to 200 mg/kg in total based on the medicinal efficacy investigation research of the present inventors. The experimental substance was dissolved in sterile distilled water and orally administered.
In addition, the total body fat and abdominal fat density were measured using DEXA (live dual-energy x-ray absorptiometry) and the result was shown in FIG. 4.

CN(C)C(=N)N=C(N)N [Metformin] was tested, and the “Abdominal wall fat pads Adipocyte diameters” value (HFD mice [1]) was 64.49 ± 13.74^ab μm, the “Abdominal wall fat pads Thickness” value (HFD mice [1]) was 2.99 ± 0.49^fg mm and the “Periovarian fat pads Adipocyte diameters” value (HFD mice [1]) was 48.12 ± 6.36^fg μm. The “Periovarian fat pads Thickness” value (HFD mice [1]) was 2.83 ± 0.43^ab mm, the “Time after the start of administration at which a significant (p<0.01 or p<0.05) decrease of body weight and fat density compared to the HFD control group began” value (HFD mice [2]) was 21 days and the “Body weight and fat density during the 84-day administration period, compared to the HFD control group (groups listed in order of effect)” value (HFD mice [2]; 84 days) was “significant (p<0.01) decrease”.
